Assay results published in patent US9586986B2, “Substituted 7-deazapurine ribonucleosides for therapeutic uses” (Institute of Organic Chemistry and Biochemistry ASCR, v.v.i., priority 2014, dated 2017).

Tests used:
Type in all cases: cell-based
CEM-DNR-bulk = assay: Cytostatic/cytotoxic MTT assay, CEM-DNR-bulk; conditions: Homo sapiens; daunorubicin resistant subline, 72 h; read-out: MTT, IC50 CEM-DNR-bulk
Description: (§1) Unless otherwise stated, all cells were purchased from the […] (ATCC). The CCRF-CEM line is derived from T lymphoblastic leukemia, evincing high chemosenzitivity, K562 represent cells from a […] patient sample with bcr-abl translocation, HCT116 is colorectal tumor cell line and its p53 gene knock-down counterpart (HCT116p53−/−, Horizon Discovery, UK) is a model of human cancers with p53 inactivation frequently associated with poor prognosis, A549 cell line is lung adenocarcinoma. The daunorubicin resistant subline of CCRF-CEM cells (CEM-DNR bulk) and paclitaxel resistant subline K562-TAX were selected in our laboratory by cultivation of maternal cell lines in increasing concentrations of daunorubicine or paclitaxel, respectively. The CEM-DNR cells overexpress mrp-1 and mdr-1 genes, while K562-TAX cells overexpress mdr-1 only. Both proteins belong to the family of ABC transporters and are involved in the primary and/or acquired multidrug resistance phenomenon (ref.: Gottesman, M. M.; Fojo, T.; Bates, S. E. Multidrug resistance in cancer: role of ATP-dependent transporters. Nat. Rev. Cancer. 2002, 2, 48-58. (b) Noskova, V.; Dzubak, P.; Kuzmina, G.; Ludkova, A.; Stehlik, D.; Trojanec, R.; Janostakova, A.; Korinkova, G.; Mihal, V.; Hajduch, M. In vitro chemoresistance profile and expression/function of MDR associated proteins in resistant cell lines derived from CCRF-CEM, K562, A549 and MDA MB 231 parental cells. Neoplasma 2002, 49, 418-425). Non-malignant MRC-5 and BJ cells, derived from normal human fibroblasts, were used as controls. The cells were maintained in Nunc/Corning 80 cm^2 plastic tissue culture flasks and cultured in cell culture medium (DMEM/RPMI 1640 with 5 g/L glucose, 2 mM glutamine, 100 U/mL penicillin, 100 µg/mL streptomycin, 10% fetal calf serum, and NaHCO3). Cell suspensions were prepared and diluted according to the particular cell type and the expected target cell density (25,000-30,000 cells/well based on cell growth characteristics). Cells were added by pipette (80 L) into 96-well microtiter plates. Inoculates were allowed a pre-incubation period of 24 h at 37° C. and 5% CO2 for stabilization. Four-fold dilutions, in 20-L aliquots, of the intended test concentration were added to the microtiter plate walls at time zero. All test compound concentrations were examined in duplicate. Incubation of the cells with the test compounds lasted for 72 h at 37° C., in a 5% CO2 atmosphere at 100% humidity. At the end of the incubation period, the cells were assayed using MTT. Aliquots (10 L) of the MTT stock solution (5 mg/ml) were pipetted into each well and incubated for another 1-4 h. After this incubation period the formazan produced was dissolved by addition of 100 µL/well of 10% aq SDS (pH 5.5), followed by a further incubation at 37° C. overnight. The optical density was measured at 540 nm. The IC50 value, the drug concentration inhibiting the cell growth by 50%, was calculated from appropriate dose-response curves.
(§2) In vitro cytotoxic/cytostatic activity final nucleosides 1-5 was initially evaluated against […] cell lines derived from human solid tumors including lung (A549 cells) and colon (HCT116 and HCT116p53−/−) carcinomas, as well as leukemia cell lines (CCRF-CEM, CEM-DNR, K562 and K562-TAX) and, for comparison, non-malignant BJ and MRC-5 fibroblasts. Concentrations inhibiting the cell growth by 50% (IC50) were determined using a quantitative metabolic staining with 3-(4,5-dimethylthiazol-2-yl)-2,5-diphenyltetrazolium bromide (MTT) (ref.: Denizot, F.; Lang, R. Rapid colorimetric assay for cell growth and survival: Modifications to the tetrazolium dye procedure giving improved sensitivity and reliability. J. Immunol. Meth. 1986, 89, 271-277) following a 3-day treatment.
(§3) Multidrug resistance is a major therapeutic problem in cancer chemotherapy. […]

HCT116p53-/- = assay: Cytostatic/cytotoxic MTT assay, HCT116p53-/-; conditions: Homo sapiens, HCT-116; 72 h incubation; read-out: MTT, IC50 HCT116 p53-/-
Description: as §1, §2, §3

[1] = tested on: Huh-7 cells harboring replicon 1B; assay: Cytotoxicity in replicon 1B cells; conditions: HCV subtype 1B replicon
Method: (§4) Compounds were also tested in Huh-7 cells harboring sub-genomic reporter replicons derived from HCV subtypes 1B and 2A (ref.: Stuyver, L. J.; Whitaker, T.; McBrayer, T. R.; Hernandez-Santiago, B. I.; Lostia, S.; Tharnish, P. M.; Ramesh, M.; Chu, C. K.; Jordan, R.; Shi, J. X.; Rachakonda, S.; Watanabe, K. A.; Otto, M. J.; Schinazi, R. F. Antimicrob. Agents Chemother. 2003, 47, 244-254).

K562-TAX = assay: Cytostatic/cytotoxic MTT assay, K562-TAX; conditions: Homo sapiens, paclitaxel resistant subline, 72 h, read-out: MTT, IC50 K562-TAX
Description: as §1, §2, §3

CCRF-CEM = assay: Cytostatic/cytotoxic MTT assay, CCRF-CEM; conditions: Homo sapiens, 72 h incubation, read-out: MTT, IC50 CCRF-CEM
Description: as §1, §2

[2] = tested on: HCV subtype 2A replicon in Huh-7 cells; assay: HCV sub-genomic reporter replicon assay, subtype 2A; conditions: Hepatitis C virus; Huh-7 cells, HCV subtype 2A replicon; read-out: Replicon 2A EC50
Method: as §4

K562 = assay: Cytostatic/cytotoxic MTT assay, K562; conditions: Homo sapiens, K562; 72 h incubation; read-out: MTT, IC50 K562
Description: as §1, §2

MRC-5 = assay: Cytostatic/cytotoxic MTT assay, MRC-5 fibroblasts; conditions: Homo sapiens, MRC5; non-malignant fibroblasts, 72 h; read-out: MTT, IC50 MRC-5
Description: as §1, §2

A549 = assay: Cytostatic/cytotoxic MTT assay, A549; conditions: Homo sapiens, A549; 72 h incubation; read-out: MTT, IC50 A549
Description: as §1, §2

[3] = tested on: HCV subtype 1B replicon in Huh-7 cells; assay: HCV sub-genomic reporter replicon assay, subtype 1B; conditions: Hepatitis C virus; Huh-7 cells, HCV subtype 1B replicon; read-out: Replicon 1B EC50
Method: as §4

[4] = tested on: Huh-7 cells harboring replicon 2A; assay: Cytotoxicity in replicon 2A cells; conditions: HCV subtype 2A replicon
Method: as §4

Structure (SMILES) | IC50 (CEM-DNR-bulk) | IC50 (HCT116p53-/-) | CC50 [1] | IC50 (K562-TAX) | IC50 (CCRF-CEM) | EC50 [2] | IC50 (K562) | IC50 (MRC-5) | IC50 (A549) | EC50 [3] | CC50 [4]
CNc1ncnc2c1c(-c1cccs1)cn2[C@@H]1O[C@H](CO)[C@@H](O)[C@H]1O [Compound 3c, 4-Methylamino-7-(β-D-ribofuranosyl)-5-(thiophen-2-yl)-7H-pyrrolo[2,3-d]pyrimidine] | > 20 µM | > 20 µM | > 44 µM | > 20 µM | > 20 µM | > 44 µM | > 20 µM | > 100 µM | > 20 µM | > 44 µM | > 44 µM
Cc1ncnc2c1c(-c1cc3ccccc3o1)cn2[C@@H]1O[C@H](CO)[C@@H](O)[C@H]1O [Compound 5f, 5-(Benzofuran-2-yl)-4-methyl-7-(β-D-ribofuranosyl)-7H-pyrrolo[2,3-d]pyrimidine] | > 20 µM | > 20 µM | > 44 µM | > 20 µM | 17.3 µM | 40.2 µM | 19.5 µM | 84.4 µM | > 20 µM | 6.76 µM | > 44 µM
C#Cc1cn([C@@H]2O[C@H](CO)[C@@H](O)[C@H]2O)c2ncnc(SC)c12 [Compound 2g, 5-Ethynyl-4-methylsulfanyl-7-(β-D-ribofuranosyl)-7H-pyrrolo[2,3-d]pyrimidine] | 0.11 µM | 0.09 µM | > 44 µM | 0.07 µM | > 20 µM | > 44 µM | 0.03 µM | > 100 µM | 0.14 µM | 0.21 µM | > 44 µM
CNc1ncnc2c1ccn2[C@@H]1O[C@H](CO)[C@@H](O)[C@H]1O [RC3, reference compound] | 4.89 µM | > 20 µM | > 44 µM | 0.92 µM | > 20 µM | > 44 µM | > 20 µM | 97.8 µM | > 20 µM | 0.82 µM | > 44 µM
CNc1ncnc2c1c(-c1cc3ccccc3o1)cn2[C@@H]1O[C@H](CO)[C@@H](O)[C@H]1O [Compound 3f, 5-(Benzofuran-2-yl)-4-methylamino-7-(β-D-ribofuranosyl)-7H-pyrrolo[2,3-d]pyrimidine] | > 20 µM | > 20 µM | > 44 µM | > 20 µM | > 20 µM | 13.6 µM | > 20 µM | 75.3 µM | > 20 µM | 2.05 µM | > 44 µM
C#Cc1cn([C@@H]2O[C@H](CO)[C@@H](O)[C@H]2O)c2ncnc(N(C)C)c12 [Compound 4g, 4-Dimethylamino-5-ethynyl-7-(β-D-ribofuranosyl)-7H-pyrrolo[2,3-d]pyrimidine] | 0.24 µM | 0.29 µM | > 44 µM | 0.26 µM | 0.09 µM | 0.1 µM | 0.11 µM | 36.1 µM | 0.39 µM | 0.07 µM | > 44 µM
